According to patent US10131652B2, “Pyrimidinyloxy benzene derivatives as herbicides” (E. I. DU PONT DE NEMOURS AND COMPANY, priority 2014, dated 2018):
Where two headings read alike, the source gives them in different places.

How the values were obtained:
Format in all cases: in vivo
[1] = test system: barnyardgrass (Echinochloa crus-galli); test: Test B pre-/postemergence plant response; conditions: Echinochloa crus-galli, 240 h, read-out: Plant response rating, Barnyardgrass; for pest or weed control at 125 g/ha: 125 g ai/ha; for pest or weed control at 500 g/ha: 500 g ai/ha
In short: (§1)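 Evaluation is visual, about 10 days after application, rating injury from 0 (none) to 100 (complete control) relative to untreated controls. Application was a preemergence soil spray on seeded pots or a postemergence spray on one- to two-leaf plants.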

corn (Zea mays) = test: Test B pre-/postemergence plant response; conditions: Zea mays, post-emergence, 240 h
In short: as §1

[2] = test system: giant foxtail (Setaria faberii); test: Test B pre-/postemergence plant response; conditions: Setaria faberi, 240 h, read-out: Plant response rating, Foxtail, Giant; for pest or weed control at 125 g/ha: 125 g ai/ha; for pest or weed control at 500 g/ha: 500 g ai/ha
In short: as §1

[3] = test system: pigweed (Amaranthus retroflexus); test: Test B pre-/postemergence plant response; conditions: Amaranthus retroflexus, 240 h, read-out: Plant response rating, Pigweed; for pest or weed control at 125 g/ha: 125 g ai/ha; for pest or weed control at 500 g/ha: 500 g ai/ha
In short: as §1

[4] = test system: wheat (Triticum aestivum); test: Test B pre-/postemergence plant response; conditions: Triticum aestivum, post-emergence, 240 h, read-out: Plant response rating, Wheat
In short: as §1

[5] = test system: barnyardgrass (Echinochloa crus-galli); test: Test D pre-/postemergence plant response; conditions: Echinochloa crus-galli; for pest or weed control at 16 g/ha: 16 g ai/ha; for pest or weed control at 16 g/ha / pest or weed control at 31 g/ha: scale 0 to 100 (0 no effect, 100 complete control); for pest or weed control at 31 g/ha: 31 g ai/ha; for pest or weed control at 62 g/ha: 62 g ai/ha; for pest or weed control at 125 g/ha: 125 g ai/ha
From the text: (§2) Seeds of plant species selected from blackgrass (Alopecurus myosuroides), Italian ryegrass (Lolium multiflorum), winter wheat (Triticum aestivum), galium (catchweed bedstraw, Galium aparine), corn (Zea mays), large (Lg) crabgrass (Digitaria sanguinalis), giant foxtail (Setaria faberii), johnsongrass (Sorghum halepense), lambsquarters (Chenopodium album), morningglory (Ipomoea coccinea), yellow nutsedge (Cyperus esculentus), pigweed (Amaranthus retroflexus), ragweed (common ragweed, Ambrosia elatior), soybean (Glycine max), bamyardgrass (Echinochloa crus-galli), oilseed rape (Brassica napus), waterhemp (common waterhemp, Amaranthus rudis), and velvetleaf (Abutilon theophrasti) were planted into a blend of loam soil and sand and treated preemergence with test chemicals formulated in a non-phytotoxic solvent mixture which included a surfactant. At the same time, plants selected from these crop and weed species and also kochia (Kochia scoparia), wild oat (Avena fatua), and chickweed (common chickweed, Stellaria media) were planted in pots containing Redi-Earth® planting medium (Scotts Company, 14111 Scottslawn Road, Marysville, Ohio 43041) comprising spaghnum peat moss, vermiculite, wetting agent and starter nutrients and treated with postemergence applications of test chemicals formulated in the same manner. Plants ranged in height from 2 to 18 cm (1- to 4-leaf stage) for postemergence treatments. Treated plants and controls were maintained in a greenhouse for 13 to 15 days, after which time all species were compared to controls and visually evaluated. Plant response ratings, summarized in Table D, are based on a scale of 0 to 100 where 0 is no effect and 100 is complete control. A dash (-) response means no test result.

[6] = test system: blackgrass (Alopecurus myosuroides); test: Test D pre-/postemergence plant response; conditions: Alopecurus myosuroides; for pest or weed control at 16 g/ha: 16 g ai/ha; for pest or weed control at 31 g/ha: 31 g ai/ha; for pest or weed control at 62 g/ha: 62 g ai/ha; for pest or weed control at 125 g/ha: 125 g ai/ha
From the text: as §2

[7] = test system: giant foxtail (Setaria faberii); test: Test D pre-/postemergence plant response; conditions: Setaria faberi; for pest or weed control at 16 g/ha: 16 g ai/ha; for pest or weed control at 31 g/ha: 31 g ai/ha; for pest or weed control at 62 g/ha: 62 g ai/ha; for pest or weed control at 125 g/ha: 125 g ai/ha
From the text: as §2

[8] = test system: johnsongrass (Sorghum halepense); test: Test D pre-/postemergence plant response; conditions: Sorghum halepense; for pest or weed control at 16 g/ha: 16 g ai/ha; for pest or weed control at 31 g/ha: 31 g ai/ha; for pest or weed control at 62 g/ha: 62 g ai/ha; for pest or weed control at 125 g/ha: 125 g ai/ha
From the text: as §2

[9] = test system: large (Lg) crabgrass (Digitaria sanguinalis); test: Test D pre-/postemergence plant response; conditions: Digitaria sanguinalis, post-emergence, Postemergence, scale 0 to 100 (0 no effect, 100 complete control), read-out: Crabgrass, Large plant response rating
From the text: as §2

[10] = post-emergence, postemergence, 0 to 100 scale, 0 no effect, 100 complete control
[11] = post-emergence, Postemergence, 0 to 100 scale (0 no effect, 100 complete control)
[12] = pre-emergence, Preemergence, 0 to 100 scale where 0 is no effect and 100 is complete control
[13] = 125 g ai/ha, postemergence, 0 to 100 scale, 0 no effect, 100 complete control
[14] = Postemergence, 500 g ai/ha, 0 to 100 scale (0 no effect, 100 complete control)
[15] = post-emergence, Postemergence, read-out: Barnyardgrass plant response rating
[16] = post-emergence, Postemergence, scale 0 to 100, 0 no effect, 100 complete control, read-out: Plant response rating, Barnyardgrass
[17] = pre-emergence, Preemergence, read-out: Plant response rating (scale 0 to 100), Barnyardgrass
[18] = pre-emergence, Preemergence, read-out: Plant response rating, Barnyardgrass
[19] = post-emergence, Postemergence, scale 0 to 100 (0 no effect, 100 complete control), read-out: Blackgrass plant response rating
[20] = post-emergence, Postemergence, scale 0 to 100, 0 no effect, 100 complete control, read-out: Plant response rating, Blackgrass
[21] = pre-emergence, Preemergence, scale 0 to 100 (0 no effect, 100 complete control), read-out: Plant response rating, Blackgrass
[22] = post-emergence, Postemergence, scale 0 to 100 (0 no effect, 100 complete control), read-out: Foxtail, Giant plant response rating
[23] = post-emergence, Postemergence, scale 0 to 100, 0 no effect, 100 complete control, read-out: Plant response rating, Foxtail, Giant
[24] = pre-emergence, Preemergence, scale 0 to 100 (0 no effect, 100 complete control), read-out: Plant response rating, Foxtail, Giant
[25] = post-emergence, Postemergence, scale 0 to 100 (0 no effect, 100 complete control), read-out: Johnsongrass plant response rating
[26] = post-emergence, Postemergence, scale 0 to 100, 0 no effect, 100 complete control, read-out: Plant response rating, Johnsongrass
[27] = pre-emergence, Preemergence, scale 0 to 100 (0 no effect, 100 complete control), read-out: Plant response rating, Johnsongrass

## FC(F)c1cc(-c2ccccc2Oc2ncc(Cl)cn2)on1 [Compound 53, 5-chloro-2-[2-[3-(difluoromethyl)-5-isoxazolyl]phenoxy]pyrimidine]
[1]; [10]
  pest or weed control at 125 g/ha: 100%
[1]; [11]
  pest or weed control at 500 g/ha: 100%
[1]; [12]
  pest or weed control at 125 g/ha: 90%
  pest or weed control at 500 g/ha: 100%
Corn (Zea mays); [13]
  Corn plant response rating (crop injury, 0 = no effect, 100 = complete kill) at 125 g/ha: 10%
Corn (Zea mays); [14]
  Corn plant response rating (crop injury, 0 = no effect, 100 = complete kill) at 500 g/ha: 70%
[2]; [10]
  pest or weed control at 125 g/ha: 100%
[2]; [11]
  pest or weed control at 500 g/ha: 100%
[2]; [12]
  pest or weed control at 125 g/ha: 90%
  pest or weed control at 500 g/ha: 100%
[3]; [10]
  pest or weed control at 125 g/ha: 100%
[3]; [11]
  pest or weed control at 500 g/ha: 100%
[3]; [12]
  pest or weed control at 125 g/ha: 100%
  pest or weed control at 500 g/ha: 100%
[4]; [13]
  plant injury at 125 g/ha: 40%
[4]; [14]
  plant injury at 500 g/ha: 80%
[5]; [15]
  pest or weed control at 16 g/ha: 5%
  pest or weed control at 31 g/ha: 10%
[5]; [16]
  pest or weed control at 62 g/ha: 25%
  pest or weed control at 125 g/ha: 35%
[5]; [17]
  pest or weed control at 62 g/ha: 40%
  pest or weed control at 125 g/ha: 95%
[5]; [18]
  pest or weed control at 16 g/ha: 0%
  pest or weed control at 31 g/ha: 5%
[6]; [19]
  pest or weed control at 16 g/ha: 5%
  pest or weed control at 31 g/ha: 40%
[6]; [20]
  pest or weed control at 62 g/ha: 20%
  pest or weed control at 125 g/ha: 30%
[6]; pre-emergence, Preemergence, read-out: Plant response rating (scale 0 to 100), Blackgrass
  pest or weed control at 125 g/ha: 95%
[6]; [21]
  pest or weed control at 16 g/ha: 5%
  pest or weed control at 31 g/ha: 25%
  pest or weed control at 62 g/ha: 90%
[7]; [22]
  pest or weed control at 16 g/ha: 40%
  pest or weed control at 31 g/ha: 20%
[7]; [23]
  pest or weed control at 62 g/ha: 25%
  pest or weed control at 125 g/ha: 30%
[7]; pre-emergence, Preemergence, read-out: Plant response rating (scale 0 to 100), Foxtail, Giant
  pest or weed control at 125 g/ha: 100%
[7]; [24]
  pest or weed control at 16 g/ha: 10%
  pest or weed control at 31 g/ha: 85%
  pest or weed control at 62 g/ha: 98%
[8]; [25]
  pest or weed control at 16 g/ha: 0%
  pest or weed control at 31 g/ha: 0%
[8]; [26]
  pest or weed control at 62 g/ha: 5%
  pest or weed control at 125 g/ha: 5%
[8]; pre-emergence, Preemergence, read-out: Plant response rating (scale 0 to 100), Johnsongrass
  pest or weed control at 125 g/ha: 55%
[8]; [27]
  pest or weed control at 16 g/ha: 0%
  pest or weed control at 31 g/ha: 0%
  pest or weed control at 62 g/ha: 35%
[9]; 16 g ai/ha
  pest or weed control at 16 g/ha: 10%
[9]; 31 g ai/ha
  pest or weed control at 31 g/ha: 20%
